Reference: patent publication US20230201166A1, “METHODS FOR TREATING CANCER BY INHIBITING CARM1” (DANA-FARBER CANCER INSTITUTE, INC., priority 2020, published 2023)
Entries after “also recorded” stand apart in the source; their conditions may differ.

How the values were obtained:
B16F10 cells = experiment: RT-qPCR of interferon stimulated genes in B16F10 cells; type: cell-based, murine; details: 0.1-1 μM, 7 days
Experimental: (§1) Total RNA was extracted using the RNeasy Mini Kit (Qiagen) according to the manufacturer's protocol. Extracted RNA (1 μg) was transcribed into cDNA using SuperScript IV VILO master mix with ezDNase enzyme according to the manufacturer's protocol (ThermoFisher). The cDNA samples were diluted and used for real-time quantitative PCR (RT-qPCR). Taqman master mix (ThermoFisher) and gene-specific primers were used for PCR amplification and detection using a QuantStudio 6 Flex Real-Time PCR System (ThermoFisher). The RT-qPCR data were normalized to GAPDH and HPRT (housekeeping genes) and presented as fold change of gene expression in the test sample compared to the control sample.

[1] = test system: SKBR3, MDA-MB-157 and MDA-MB-436 cells; experiment: RT-qPCR of ISGs in human tumor cells; type: cell-based; details: 2 μM, 7 days
Experimental: RT-qPCR analysis of selected ISGs and IFNs in human SKBR3, MDA-MB-157 and MDA-MB-436 cells treated with vehicle or CARM1 inhibitor (2 μM) for 7 days (n=3/group).
as §1

[2] = test system: B16F10-OVA-ZsGreen tumor cells; experiment: T cell cytotoxicity assay, B16F10-OVA-ZsGreen tumor cells with OT-I CD8 T cells; type: cell-based, murine; details: pre-treatment 0.1 μM for 24 hours
Text: FIG. 3K illustrates that inactivation of Carm1 gene in tumor cells elicits tumor immunity, showing sensitization of tumor cells to T cells with a CARM1 inhibitor. […] Vehicle or inhibitor treated tumor cells were co-cultured with OT-I CD8 T cells at indicated E:T ratios (n=7-8 replicates/condition).
A Celigo image cytometer (Nexcelom) was used to study the killing of fluorescent tumor cells by CD8 T cells. Carm1-KO or control-KO B16-OVA-ZsGreen cells were washed with PBS, and 5,000 tumor cells were added per well in flat-bottom 96-well plates (8-10 replicates/group). OT-I CD8 T cells were added at different effector to target ratios. Following 24 or 48 hours of co-culture, the media was removed, and wells were washed with PBS to remove dead tumor cells and CD8 T cells. Live, adherent tumor cells were then counted using the Celigo image cytometer. As an alternative approach, apoptotic tumor cells were counted based on Caspase 3/7 activation. A Caspase-3/7 reagent (Essen Bioscience) was added directly to the culture media (0.5 μM final concentration) after 12, 24 or 48 hours of co-culture of tumor cells with T cells, and positive tumor cells were counted using the image cytometer.

B16F10 tumor cells = experiment: dsDNA damage, γH2AX immunofluorescence; type: cell-based, murine; details: B16F10 melanoma cells
Experimental: Representative immunofluorescence images (left) of γH2AX antibody labeling (purple); nuclei labeled with DAPI. Quantification of number of γH2AX foci/nucleus (right). Data are shown as mean±SEM, ***p<0.001, by unpaired two-sided Mann-Whitney test. Scale bar—[…].
Cells were grown on glass coverslips, washed with PBS and fixed in 4% paraformaldehyde in PBS for 20 min at room temperature. Cells were permeabilized in 0.2% Triton X-100 for 15 min before blocking for 30 min with 10% serum-containing blocker (ThermoFisher). Coverslips were then incubated with primary antibody overnight […] in a humidified chamber, followed by incubation with a secondary antibody for 1 hour. Primary and secondary antibodies were diluted in blocking buffer, and […]. Coverslips were mounted using Prolong Gold Antifade Mounting Medium with DAPI (ThermoFisher). Imaging was performed using a Hamamatsu ORCA-Flash4.0 V3 Digital CMOS camera and Nikon Ti-E Motorized Microscope 2000U microscope with Plan Apo Lamda 60×/1.40 Oil Ph3 DM objectives. Images were captured with Nikon Elements Acquisition Software. All scoring was performed under blinded conditions. Three independent experiments with three biological replicates per group were performed.

[3] = test system: malignant melanoma cell lines; details: cited from earlier work
RPMI-8226 = details: immunodeficient mouse model; cited from earlier work
[4] = Toxicity study in C57Bl/6 mice; details: 150 mg/kg twice daily, oral gavage, 14 days, versus solvent control
Experimental: Sex and age matched C57Bl/6 mice were randomized into two groups treated twice daily with either CARM1 inhibitor (150 mg/kg) or vehicle via oral gavage for 14 days. Major organs including heart, spleen, kidney, liver, lung and small intestine were harvested for pathological assessment. […] Scale bar=50 μM.

Compound: CNC[C@@H](O)COc1ccc(Cl)c(-c2nc(-c3c(C)noc3C)c(C)c(N3CC4(CCN(C(=O)OC)CC4)C3)n2)c1 (stereo in doubt) [EZM2302]
- interferon stimulated gene (ISG) expression / mRNA levels (B16F10 cells): induced up regulation of the ISGs expression; also recorded: significantly increased the mRNA levels of these ISGs
- expression of ISGs in human breast and melanoma cancer cell lines [1]: induced the expression of a similar set of ISGs
- sensitization of tumor cells to CD8 T cells [2]: sensitized them to CD8 T cells
- γH2AX foci (B16F10 tumor cells): induced γH2AX foci accumulation
- cell stasis, IC50 [3]: nanomolar range
- inhibition of PABP1 and SMB methylation, IC50 [3]: nanomolar range
- in vivo growth of RPMI-8226 (RPMI-8226): moderately slow the in vivo growth
- histological changes in major organs [4]: no histological changes
- weight loss [4]: no histological changes was observed in a comprehensive analysis of major organs or weight loss
